Common to all, as to type: cell-based
In one experiment the test system is MV-4-11 cells. As to the kind of experiment: AML cell viability assay (RealTime-Glo). The following applies: Homo sapiens, MV4-11, IC50 class, MV-4-11 cells, read-out: Cell viability classification.
For experiment [1], the target named is T1, CK1α (Homo sapiens, UniProt P48729+Q96SW2). As to the kind of experiment: CK1α degradation, Jess assay in MV-4-11 cells. Also noted: CK1α levels were determined in MV-4-11 cells using Jess (Protein Simple); host or cells: MV-4-11; dose or concentration left out as unconfirmed. The following applies: MV4-11, % reduction of CK1α compared to DMSO, MV-4-11 cells for 16 hours, normalized to β-actin, read-out: CK1α degradation classification. As to the method: (§1) MM.1S and NCCIT cells were obtained from ATCC and grown in RPMI-1640 supplemented with 10% FBS. MV-4-11 cells were obtained from ATCC and grown in IMDM supplemented with 10% FBS. The cells were maintained at 37° C. under 5% CO2.
Compounds of the present disclosure was added to cells (final DMSO concentration of 0.1%) and incubated for 16 hours. CK1α levels were determined in MV-4-11 cells using Jess (Protein Simple). Briefly, whole cell lysates were prepared in lysis buffer (1×RIPA buffer [Thermo, 89900], 2 mM MgCl2 [Sigma, M1028], 0.05% Benzonase [Sigma, E1014], 1× Pierce protease inhibitor tablets EDTA-free [Thermo, A32965]). 6-20 μg of the lysates were analyzed using Jess with antibodies against CK1α (Abcam, ab108296) and β-actin (R&D Systems, MAB8929). Protein levels were normalized to β-actin levels. DC50 values were obtained using four-parameter non-linear regressions using Prism (GraphPad).
The efficacy of CK1α degradation of a part of compounds of the present disclosure was determined by treating MV-4-11 cells at […] (final DMSO concentration of 0.1%) for 16 hours. CK1α levels were determined using Jess and normalized to β-actin levels. The compounds are classified based on amount of CK1α degradation (% reduction of CK1α compared to DMSO) as follows. • A: Degradation is greater than or equal to 75%; • B: Degradation is less than […] & greater than or equal to 50%; • C: Degradation is less than […]; • ND: not determined.

The target of experiment [2] is T1, CK1α. As to the kind of experiment: CK1α degradation, Western blot in MV-4-11 cells. Also noted: CK1α levels were determined in MV-4-11 cells using Jess (Protein Simple); host or cells: MV-4-11. The following applies: % reduction of CK1α compared to DMSO, MV4-11 cells at 1 μM for 4 hours, read-out: CK1α degradation classification. As to the method:
as §1
Compounds of the present disclosure was added to cells (final DMSO concentration of 0.1%) and incubated for 4 hours. CK1α levels were determined in MV-4-11 cells using Western blot analysis. Whole cell lysates were prepared in lysis buffer (1×RIPA buffer [Thermo, 89900], 2 mM MgCl2 [Sigma, M1028], 0.05% Benzonase [Sigma, E1014], 1× Pierce protease inhibitor tablets EDTA-free [Thermo, A32965]). […] of the lysates were analyzed using Western blot with antibodies against CK1α (Abcam, ab108296) and β-actin (R&D Systems, MAB8929).
The efficacy of CK1α degradation of other part of compounds of the present disclosure was determined by treating MV4-11 cells at 1 μM (Final DMSO concentration of 0.1%) for 4 hours. Protein levels relative to DMSO are calculated for CK1α. The compounds are classified based on the amount of CK1α degradation (% reduction of CK1α compared to DMSO) as follows. • A: Degradation is greater than or equal to 75%; • B: Degradation is less than 75% & greater than or equal to 50%; • C: Degradation is less than […]; • ND: not determined.

[3] abbreviates: RealTime-Glo after 44 hrs of treatment (TABLE 1).
The mark [4] stands for this setting: RealTime-Glo after 44 hrs of treatment (TABLE 4).

The record followed here is patent US20250188069A1, “COMPOUNDS AND METHODS FOR DEGRADING CASEIN KINASE 1 ALPHA” (PIN THERAPEUTICS, INC., priority 2022, published 2025).

Structures can show the parent of a compound that is named as a salt. Where two headings read alike, the source gives them in different places.

T1 sequence (P48729 whole entry): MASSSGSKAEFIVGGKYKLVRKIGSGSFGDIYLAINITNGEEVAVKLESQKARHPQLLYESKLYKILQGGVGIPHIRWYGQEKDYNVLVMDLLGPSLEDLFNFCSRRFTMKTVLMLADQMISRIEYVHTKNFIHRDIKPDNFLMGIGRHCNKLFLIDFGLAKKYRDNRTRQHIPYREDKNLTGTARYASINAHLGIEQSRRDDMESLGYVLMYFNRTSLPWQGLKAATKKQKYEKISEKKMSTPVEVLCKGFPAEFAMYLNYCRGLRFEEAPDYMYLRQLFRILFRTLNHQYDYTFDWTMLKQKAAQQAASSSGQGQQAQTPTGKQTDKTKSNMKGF
T1 sequence (Q96SW2 whole entry): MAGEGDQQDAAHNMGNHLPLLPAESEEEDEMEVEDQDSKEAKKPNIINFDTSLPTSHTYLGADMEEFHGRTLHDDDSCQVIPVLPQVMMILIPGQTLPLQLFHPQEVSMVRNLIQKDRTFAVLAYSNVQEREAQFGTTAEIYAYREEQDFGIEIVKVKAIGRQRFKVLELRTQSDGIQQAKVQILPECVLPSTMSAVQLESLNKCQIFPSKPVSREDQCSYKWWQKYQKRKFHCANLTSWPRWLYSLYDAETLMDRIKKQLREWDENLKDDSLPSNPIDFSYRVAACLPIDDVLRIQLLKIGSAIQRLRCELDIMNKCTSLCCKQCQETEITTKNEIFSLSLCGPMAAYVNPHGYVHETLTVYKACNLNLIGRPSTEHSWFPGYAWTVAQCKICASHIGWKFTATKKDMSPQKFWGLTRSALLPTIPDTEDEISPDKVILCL
T1 sequence (Q16531 whole entry partner): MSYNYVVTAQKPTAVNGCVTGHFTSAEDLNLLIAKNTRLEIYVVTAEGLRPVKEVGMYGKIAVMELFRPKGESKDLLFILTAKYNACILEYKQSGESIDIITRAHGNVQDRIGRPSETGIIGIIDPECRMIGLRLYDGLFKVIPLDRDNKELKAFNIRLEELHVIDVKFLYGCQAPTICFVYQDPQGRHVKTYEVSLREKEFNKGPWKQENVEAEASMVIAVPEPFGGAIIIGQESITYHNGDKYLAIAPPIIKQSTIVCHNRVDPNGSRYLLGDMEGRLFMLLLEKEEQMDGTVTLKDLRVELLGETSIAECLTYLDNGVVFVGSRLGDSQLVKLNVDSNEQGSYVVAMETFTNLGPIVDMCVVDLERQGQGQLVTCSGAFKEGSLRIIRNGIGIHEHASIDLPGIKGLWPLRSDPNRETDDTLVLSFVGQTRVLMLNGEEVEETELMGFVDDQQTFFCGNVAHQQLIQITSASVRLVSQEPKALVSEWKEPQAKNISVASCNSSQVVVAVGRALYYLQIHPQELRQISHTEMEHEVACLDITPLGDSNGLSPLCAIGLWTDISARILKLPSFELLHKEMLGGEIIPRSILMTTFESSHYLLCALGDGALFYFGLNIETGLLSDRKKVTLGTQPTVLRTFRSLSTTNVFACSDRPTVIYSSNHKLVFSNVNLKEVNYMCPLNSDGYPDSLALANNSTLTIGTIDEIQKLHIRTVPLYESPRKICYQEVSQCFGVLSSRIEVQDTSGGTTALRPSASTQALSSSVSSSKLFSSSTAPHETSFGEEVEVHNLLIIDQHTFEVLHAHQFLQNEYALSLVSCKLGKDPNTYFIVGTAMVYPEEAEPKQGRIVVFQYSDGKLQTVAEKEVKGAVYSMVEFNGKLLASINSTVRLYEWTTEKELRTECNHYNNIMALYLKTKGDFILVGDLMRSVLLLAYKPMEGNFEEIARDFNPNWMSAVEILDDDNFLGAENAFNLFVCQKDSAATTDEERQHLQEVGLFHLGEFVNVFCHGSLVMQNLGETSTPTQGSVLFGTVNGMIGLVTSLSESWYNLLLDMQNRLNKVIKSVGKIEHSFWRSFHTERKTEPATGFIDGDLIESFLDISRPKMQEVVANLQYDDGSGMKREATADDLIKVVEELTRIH

For `CCCCCN(c1cccc2c1CN(C1CCC(=O)NC1=O)C2=O)[C@H]1CC[C@@H](CN)CC1` (stereo partly drawn) [Compound 89, 3-(4-(((1S,4S)-4-(aminomethyl)cyclohexyl)(pentyl)amino)-1-oxoisoindolin-2-yl)piperidine-2,6-dione hydrochloride], the IC50 with MV-4-11 cells (setting [3]) is less than 100 nM. In addition, on CK1α [1], the Dmax is more than 75%.

For `CCCCCN(c1cccc2c1CN(C1CCC(=O)NC1=O)C2=O)[C@H]1CC[C@H](CN)CC1` (stereo partly drawn) [Compound 90, 3-(4-(((1R,4R)-4-(aminomethyl)cyclohexyl)(pentyl)amino)-1-oxoisoindolin-2-yl)piperidine-2,6-dione hydrochloride], in the experiment with MV-4-11 cells (setting [3]), the IC50 is less than 100 nM. Besides, the Dmax at CK1α [1] is more than 75%.

For the molecule `CCCCN(CC#CCN)c1cccc2c1CN(C1CCC(=O)NC1=O)C2=O` (stereo not drawn) [Compound 115, 3-(4-((4-aminobut-2-yn-1-yl)(butyl)amino)-1-oxoisoindolin-2-yl)piperidine-2,6-dione], the IC50 with MV-4-11 cells (setting [3]) was more than 1000 nM. Also, at CK1α [1], the Dmax lay in the range of 50 to 7500%.

Turning to `CC#CCN(CCCCN)c1cccc2c1CN(C1CCC(=O)NC1=O)C2=O` (stereo not drawn) [Compound 116, 3-(4-((4-aminobutyl)(but-2-yn-1-yl)amino)-1-oxoisoindolin-2-yl)piperidine-2,6-dione], in the experiment with MV-4-11 cells (setting [3]), the IC50 is less than 100 nM. In addition, on CK1α [1], the Dmax was more than 75%.

As to `N[C@H]1CC[C@H](N(CCCc2ccccc2)c2cccc3c2CN(C2CCC(=O)NC2=O)C3=O)CC1` (stereo partly drawn) [Compound 251, 3-(4-(((1r,4r)-4-aminocyclohexyl)(3-phenylpropyl)amino)-1-oxoisoindolin-2-yl)piperidine-2,6-dione hydrochloride], the IC50 with MV-4-11 cells (setting [3]) is less than 100 nM. Moreover, the Dmax on CK1α [1] was more than 75%.

Take `CCCCCN(c1cccc2c1CN(C1CCC(=O)NC1=O)C2=O)[C@@H]1CC[C@@H](N)C1` (stereo partly drawn) [Compound 323, 3-(4-(((1R,3R)-3-aminocyclopentyl)(pentyl)amino)-1-oxoisoindolin-2-yl)piperidine-2,6-dione]: the IC50 in the experiment with MV-4-11 cells (setting [3]) was less than 100 nM. On CK1α [1], the Dmax was more than 75%.

On to `CCCCCN(c1cccc2c1CN(C1CCC(=O)NC1=O)C2=O)[C@@H]1CC[C@H](N)C1` (stereo partly drawn) [Compound 324, 3-(4-(((1R,3S)-3-aminocyclopentyl)(pentyl)amino)-1-oxoisoindolin-2-yl)piperidine-2,6-dione], for which the IC50 with MV-4-11 cells (setting [3]) was less than 100 nM. The Dmax on CK1α [1] was more than 75%.

Take `NC[C@H]1CC[C@@H](N(CCCC2CCOCC2)c2cccc3c2CN(C2CCC(=O)NC2=O)C3=O)CC1` (stereo partly drawn) [Compound 333, 3-(4-(((1s,4s)-4-(aminomethyl)cyclohexyl)(3-(tetrahydro-2H-pyran-4-yl)propyl)amino)-1-oxoisoindolin-2-yl)piperidine-2,6-dione]: the IC50 in the experiment on MV-4-11 cells (setting [3]) is less than 100 nM. In addition, the Dmax at CK1α [1] is more than 75%.

Turning to `NC[C@H]1CC[C@@H](N(CCC2CC2)c2cccc3c2CN(C2CCC(=O)NC2=O)C3=O)CC1` (stereo partly drawn) [Compound 358, 3-(4-(((1s,4s)-4-(aminomethyl)cyclohexyl)(2-cyclopropylethyl)amino)-1-oxoisoindolin-2-yl)piperidine-2,6-dione], the IC50 in the experiment with MV-4-11 cells (setting [3]) was less than 100 nM. In addition, the Dmax on CK1α [1] was more than 75%.

With `O=C1CCC(N2Cc3c(cccc3N(CCC3CC3)[C@H]3C[C@@H](c4nnc[nH]4)C3)C2=O)C(=O)N1` (stereo partly drawn) [Compound 603, 3-{4-[(2-cyclopropylethyl)[(1s,3s)-3-(4H-1,2,4-triazol-3-yl)cyclobutyl]amino]-1-oxo-3H-isoindol-2-yl}piperidine-2,6-dione; formate], the IC50 in the experiment with MV-4-11 cells (setting [4]) is less than 100 nM. For the same molecule, the Dmax at 1 µM on CK1α [2] is more than 75%.

Consider `O=C1CCC(N2Cc3c(cccc3N(CCC3CC3)[C@H]3C[C@H](c4nnc[nH]4)C3)C2=O)C(=O)N1` (stereo partly drawn) [Compound 604, 3-{4-[(2-cyclopropylethyl)[(1s,3s)-3-(4H-1,2,4-triazol-3-yl)cyclobutyl]amino]-1-oxo-3H-isoindol-2-yl}piperidine-2,6-dione; formate], for which the IC50 with MV-4-11 cells (setting [4]) is less than 100 nM. On CK1α [2], the Dmax at 1 µM is more than 75%.

As for `O=C1CCC(N2Cc3c(cccc3N(CCC3CC3)[C@H]3CC[C@H](NCC4(F)CC4)CC3)C2=O)C(=O)N1` (stereo partly drawn) [Compound 612, 3-{4-[(2-cyclopropylethyl)[(1r,4r)-4-{[(1-fluorocyclopropyl)methyl]amino}cyclohexyl]amino]-1-oxo-3H-isoindol-2-yl}piperidine-2,6-dione], the IC50 in the experiment with MV-4-11 cells (setting [4]) was less than 100 nM. Also, the Dmax at 1 µM on CK1α [2] was more than 75%.

As for `O=C1CCC(N2Cc3c(cccc3N(CCC3CC3)[C@H]3CC[C@H](NCC4(F)CCC4)CC3)C2=O)C(=O)N1` (stereo partly drawn) [Compound 613, 3-{4-[(2-cyclopropylethyl)[(1r,4r)-4-{[(1-fluorocyclobutyl)methyl]amino}cyclohexyl]amino]-1-oxo-3H-isoindol-2-yl}piperidine-2,6-dione], the IC50 with MV-4-11 cells (setting [4]) is less than 100 nM. Further, on CK1α [2], the Dmax at 1 µM was more than 75%.

Regarding `CS(=O)(=O)C1(CN[C@H]2CC[C@H](N(CCC3CC3)c3cccc4c3CN(C3CCC(=O)NC3=O)C4=O)CC2)CC1` (stereo partly drawn) [Compound 615, 3-{4-[(2-cyclopropylethyl)[(1r,4r)-4-{[(1-methanesulfonylcyclopropyl)methyl]amino}cyclohexyl]amino]-1-oxo-3H-isoindol-2-yl}piperidine-2,6-dione; trifluoroacetate], the IC50 in the experiment with MV-4-11 cells (setting [4]) was less than 100 nM. Further, the Dmax at 1 µM on CK1α [2] is more than 75%.

Consider `O=C1CCC(N2Cc3c(cccc3N(CCC3CC3)[C@H]3CC[C@H](NCC4(F)COC4)CC3)C2=O)C(=O)N1` (stereo partly drawn) [Compound 616, 3-{4-[(2-cyclopropylethyl)[(1r,4r)-4-{[(3-fluorooxetan-3-yl)methyl]amino}cyclohexyl]amino]-1-oxo-3H-isoindol-2-yl}piperidine-2,6-dione; trifluoro acetate], for which the IC50 in the experiment on MV-4-11 cells (setting [4]) is less than 100 nM. The Dmax at 1 µM on CK1α [2] is more than 75%.

`C[C@]1(N)CC[C@H](N(CCC2CC2)c2cccc3c2CN(C2CCC(=O)NC2=O)C3=O)CC1` (stereo partly drawn) [Compound 634, 3-{4-[(2-cyclopropylethyl)[(1r,4r)-4-amino-4-methylcyclohexyl]amino]-1-oxo-3H-isoindol-2-yl}piperidine-2,6-dione]: the IC50 in the experiment on MV-4-11 cells (setting [4]) fell in the range of 100 to 1000 nM. The Dmax at 1 µM on CK1α [2] is 50 to 75%.

Regarding `C[C@]1(N)CC[C@@H](N(CCC2CC2)c2cccc3c2CN(C2CCC(=O)NC2=O)C3=O)CC1` (stereo partly drawn) [Compound 635, 3-{4-[(2-cyclopropylethyl)[(1s,4s)-4-amino-4-methylcyclohexyl]amino]-1-oxo-3H-isoindol-2-yl}piperidine-2,6-dione], the IC50 with MV-4-11 cells (setting [4]) was less than 100 nM. The Dmax at 1 µM on CK1α [2] was more than 75%.

Consider `O=C1CCC(N2Cc3c(cccc3N(CCCCC(F)(F)F)[C@H]3CC[C@H](NCCC(F)(F)F)CC3)C2=O)C(=O)N1` (stereo partly drawn) [Compound 636, 3-(1-oxo-4-{[(1r,4r)-4-[(3,3,3-trifluoropropyl)amino]cyclohexyl](5,5,5-trifluoropentyl)amino}-3H-isoindol-2-yl)piperidine-2,6-dione; trifluoroacetate], for which the IC50 in the experiment with MV-4-11 cells (setting [4]) lay within 100 to 1000 nM. Moreover, on CK1α [2], the Dmax at 1 µM was more than 75%.
